Literature values as cited in patent US20150258078A1 (priority 2014, published 2015).
Like-named read-outs stand apart in the source and are kept apart here.

Columns and labels:
[1] = tested on: type 2 diabetic and nondiabetic subjects; details: 61.4 micromol/day for 28 days; for VLDL, mean of absolute differences between 0 and 28 day treatment +/- S.E.M. / triacylglycerol, mean of absolute differences between 0 and 28 day treatment +/- S.E.M.: plasma
[2] = tested on: male inbred BHE (IN-BHE) rats; details: after the injection of 300 µg
[3] = tested on: patients with elevated cholesterol and triglycerides; details: multiple clinical trials; daily intakes 600 to 1200 mg/day

Compound | VLDL, mean of absolute differences between 0 and 28 day treatment +/- S.E.M. ([1]; diabetic group) | triacylglycerol, mean of absolute differences between 0 and 28 day treatment +/- S.E.M. ([1]; diabetic group) | cholesterol, glucose and insulin ([1]; diabetic or nondiabetic subjects) | VLDL, mean of absolute differences between 0 and 28 day treatment +/- S.E.M. ([1]; nondiabetic group) | triacylglycerol, mean of absolute differences between 0 and 28 day treatment +/- S.E.M. ([1]; nondiabetic group) | plasma levels of lactate and pyruvate [2] | HDL cholesterol increased [3] | total cholesterol decreased [3] | triglycerides decreased [3]
O=C(O)CCCC[C@@H]1SC[C@@H]2NC(=O)N[C@@H]21 [Biotin] | −0.11+/−0.04 | −0.55+/−0.2 | no significant effects | −0.18+/−0.07 | −0.92+/−0.36 | fell |  |  | 
Pantethine |  |  |  |  |  |  | 9% | 12% | 18%
